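Dose response: 5 concentrations. Exposure: 48 h. Format: 96-well plates. Endpoint: linear interpolation; highest concentration if not reached. TGI: total growth inhibition.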

The first test deals with NCI-H226 lung. Description: NCI tumour cell line growth inhibition, 48 h.
`Cc1cc2c(cc1C)C(=O)C1(C2)Cc2c(C)ccc(C)c2C1=O` (stereo unspecified) registered a TGI of over 100 µM.

For the next test, the system named is MDA-N. Kind of test: NCI tumour cell line growth inhibition, 48 h.
Compound `CC1=NC(=Cc2cc(Br)cc(Br)c2)C(=O)N1n1c(-c2ccccc2)nc2ccccc2c1=O` displayed a TGI of over 100 µM.
Compound `CN1C(=O)c2ccccc2OC12C=Cc1ccc(O)cc1O2` (stereo unspecified) displayed a TGI of over 100 µM.
With `CN(C)CC1CCC/C(=C\c2ccc(Cl)cc2)C1=O` (stereo unspecified), the TGI came to 5.17 µM.
With `Cc1cc2c(cc1C)C(=O)C1(C2)Cc2c(C)ccc(C)c2C1=O` (stereo unspecified), the TGI was over 100 µM.

A further test has as its system SK-OV-3 ovarian. Kind of test: NCI tumour cell line growth inhibition, 48 h.
`CC1=NC(=Cc2cc(Br)cc(Br)c2)C(=O)N1n1c(-c2ccccc2)nc2ccccc2c1=O` registered a TGI of over 100 µM.
On the same count and under the same terms, the result for `CN1C(=O)c2ccccc2OC12C=Cc1ccc(O)cc1O2` (stereo unspecified) reads 53.5 µM; that for `CN(C)CC1CCC/C(=C\c2ccc(Cl)cc2)C1=O` (stereo unspecified), 23.2 µM.

Another test has as its system SK-MEL-28 melanoma. Kind of test: NCI tumour cell line growth inhibition, 48 h.
Take `CC1=NC(=Cc2cc(Br)cc(Br)c2)C(=O)N1n1c(-c2ccccc2)nc2ccccc2c1=O`: the TGI is over 100 µM.
Same read-out and setting: then `CN1C(=O)c2ccccc2OC12C=Cc1ccc(O)cc1O2` (stereo unspecified), with over 100 µM; and `CN(C)CC1CCC/C(=C\c2ccc(Cl)cc2)C1=O` (stereo unspecified), with 9.04 µM.
Still for that read-out and setting: the result for `Cc1cc2c(cc1C)C(=O)C1(C2)Cc2c(C)ccc(C)c2C1=O` (stereo unspecified) reads over 100 µM.

The subject of a further test is CCRF-CEM leukemia. Kind of test: NCI tumour cell line growth inhibition, 48 h.
As to `CC1=NC(=Cc2cc(Br)cc(Br)c2)C(=O)N1n1c(-c2ccccc2)nc2ccccc2c1=O`, the TGI was over 100 µM.
For `CN1C(=O)c2ccccc2OC12C=Cc1ccc(O)cc1O2` (stereo unspecified), the TGI was determined as 72.8 µM.
The same measure, in the same setting: the result for `CN(C)CC1CCC/C(=C\c2ccc(Cl)cc2)C1=O` (stereo unspecified) reads 3.39 µM; that for `Cc1cc2c(cc1C)C(=O)C1(C2)Cc2c(C)ccc(C)c2C1=O` (stereo unspecified), over 100 µM.

A further test relates to SW-620 colon. Description: NCI tumour cell line growth inhibition, 48 h.
`CC1=NC(=Cc2cc(Br)cc(Br)c2)C(=O)N1n1c(-c2ccccc2)nc2ccccc2c1=O` displayed a TGI of over 100 µM.
The same measure, in the same setting: the result for `CN1C(=O)c2ccccc2OC12C=Cc1ccc(O)cc1O2` (stereo unspecified) reads over 100 µM.
The same measure, in the same setting: the result for `CN(C)CC1CCC/C(=C\c2ccc(Cl)cc2)C1=O` (stereo unspecified) reads 4.08 µM.
As for `Cc1cc2c(cc1C)C(=O)C1(C2)Cc2c(C)ccc(C)c2C1=O` (stereo unspecified), the TGI is over 100 µM.

In the next test the test system is SNB-75 CNS. Description: NCI tumour cell line growth inhibition, 48 h.
In the case of `CC1=NC(=Cc2cc(Br)cc(Br)c2)C(=O)N1n1c(-c2ccccc2)nc2ccccc2c1=O`, the TGI was over 100 µM.
Turning to `CN1C(=O)c2ccccc2OC12C=Cc1ccc(O)cc1O2` (stereo unspecified), the TGI came out at 80.1 µM.
On the same count and under the same terms, then `CN(C)CC1CCC/C(=C\c2ccc(Cl)cc2)C1=O` (stereo unspecified), with 14.9 µM.
`Cc1cc2c(cc1C)C(=O)C1(C2)Cc2c(C)ccc(C)c2C1=O` (stereo unspecified) showed a TGI of over 100 µM.

In another test the test system is SN12C renal. Description: NCI tumour cell line growth inhibition, 48 h.
`CC1=NC(=Cc2cc(Br)cc(Br)c2)C(=O)N1n1c(-c2ccccc2)nc2ccccc2c1=O`: the TGI was over 100 µM.
On to `CN1C(=O)c2ccccc2OC12C=Cc1ccc(O)cc1O2` (stereo unspecified), for which the TGI was over 100 µM.
In turn, `CN(C)CC1CCC/C(=C\c2ccc(Cl)cc2)C1=O` (stereo unspecified) yielded a TGI of 8.55 µM.
On the same count and under the same terms, then `Cc1cc2c(cc1C)C(=O)C1(C2)Cc2c(C)ccc(C)c2C1=O` (stereo unspecified), with over 100 µM.

The subject of the next test is 786-0 renal. Description: NCI tumour cell line growth inhibition, 48 h.
Regarding `CC1=NC(=Cc2cc(Br)cc(Br)c2)C(=O)N1n1c(-c2ccccc2)nc2ccccc2c1=O`, the TGI is over 100 µM.
Still for that read-out and setting: then `CN1C(=O)c2ccccc2OC12C=Cc1ccc(O)cc1O2` (stereo unspecified), with over 100 µM.
The compound `CN(C)CC1CCC/C(=C\c2ccc(Cl)cc2)C1=O` (stereo unspecified) displayed a TGI of 3.22 µM.
Consider `Cc1cc2c(cc1C)C(=O)C1(C2)Cc2c(C)ccc(C)c2C1=O` (stereo unspecified), for which the TGI is over 100 µM.

A further test relates to ACHN renal. Kind of test: NCI tumour cell line growth inhibition, 48 h.
`CC1=NC(=Cc2cc(Br)cc(Br)c2)C(=O)N1n1c(-c2ccccc2)nc2ccccc2c1=O` displayed a TGI of over 100 µM.
Still for that read-out and setting: then `CN1C(=O)c2ccccc2OC12C=Cc1ccc(O)cc1O2` (stereo unspecified), with over 100 µM.
`CN(C)CC1CCC/C(=C\c2ccc(Cl)cc2)C1=O` (stereo unspecified) displayed a TGI of 7.04 µM.
`Cc1cc2c(cc1C)C(=O)C1(C2)Cc2c(C)ccc(C)c2C1=O` (stereo unspecified) registered a TGI of over 100 µM.

A further test concerns M14 melanoma. Kind of test: NCI tumour cell line growth inhibition, 48 h.
`CC1=NC(=Cc2cc(Br)cc(Br)c2)C(=O)N1n1c(-c2ccccc2)nc2ccccc2c1=O` had a TGI of over 100 µM.
The compound `CN1C(=O)c2ccccc2OC12C=Cc1ccc(O)cc1O2` (stereo unspecified) had a TGI of 45.3 µM.
`CN(C)CC1CCC/C(=C\c2ccc(Cl)cc2)C1=O` (stereo unspecified) came in with a TGI of 6.15 µM.
The same measure, in the same setting: then `Cc1cc2c(cc1C)C(=O)C1(C2)Cc2c(C)ccc(C)c2C1=O` (stereo unspecified), with over 100 µM.

For the next test, the system named is NCI-H522 lung. Description: NCI tumour cell line growth inhibition, 48 h.
As for `CC1=NC(=Cc2cc(Br)cc(Br)c2)C(=O)N1n1c(-c2ccccc2)nc2ccccc2c1=O`, the TGI is over 100 µM.
In the case of `CN1C(=O)c2ccccc2OC12C=Cc1ccc(O)cc1O2` (stereo unspecified), the TGI is over 100 µM.
`CN(C)CC1CCC/C(=C\c2ccc(Cl)cc2)C1=O` (stereo unspecified) had a TGI of 3.27 µM.
`Cc1cc2c(cc1C)C(=O)C1(C2)Cc2c(C)ccc(C)c2C1=O` (stereo unspecified): the TGI is over 100 µM.

In the next test the test system is LOX IMVI melanoma. Description: NCI tumour cell line growth inhibition, 48 h.
With `CC1=NC(=Cc2cc(Br)cc(Br)c2)C(=O)N1n1c(-c2ccccc2)nc2ccccc2c1=O`, the TGI is over 100 µM.
On the same count and under the same terms, then `CN1C(=O)c2ccccc2OC12C=Cc1ccc(O)cc1O2` (stereo unspecified), with 26.8 µM; and `CN(C)CC1CCC/C(=C\c2ccc(Cl)cc2)C1=O` (stereo unspecified), with 3.25 µM.
Same read-out and setting: then `Cc1cc2c(cc1C)C(=O)C1(C2)Cc2c(C)ccc(C)c2C1=O` (stereo unspecified), with over 100 µM.

Another test has as its system SK-MEL-2 melanoma. Description: NCI tumour cell line growth inhibition, 48 h.
On to `CC1=NC(=Cc2cc(Br)cc(Br)c2)C(=O)N1n1c(-c2ccccc2)nc2ccccc2c1=O`, for which the TGI was over 100 µM.
The same measure, in the same setting: then `CN1C(=O)c2ccccc2OC12C=Cc1ccc(O)cc1O2` (stereo unspecified), with 56.1 µM; and `CN(C)CC1CCC/C(=C\c2ccc(Cl)cc2)C1=O` (stereo unspecified), with 2.05 µM; and `Cc1cc2c(cc1C)C(=O)C1(C2)Cc2c(C)ccc(C)c2C1=O` (stereo unspecified), with over 100 µM.

Another test relates to SNB-19 CNS. Description: NCI tumour cell line growth inhibition, 48 h.
The compound `CC1=NC(=Cc2cc(Br)cc(Br)c2)C(=O)N1n1c(-c2ccccc2)nc2ccccc2c1=O` had a TGI of over 100 µM.
On the same count and under the same terms, then `CN1C(=O)c2ccccc2OC12C=Cc1ccc(O)cc1O2` (stereo unspecified), with over 100 µM; and `CN(C)CC1CCC/C(=C\c2ccc(Cl)cc2)C1=O` (stereo unspecified), with 26.5 µM; and `Cc1cc2c(cc1C)C(=O)C1(C2)Cc2c(C)ccc(C)c2C1=O` (stereo unspecified), with over 100 µM.

These data come from PubChem BioAssay (NCI).
